Here are results for two compounds from patent publication US20200085749A1, “IMMEDIATE-RELEASE TABLETS CONTAINING A DRUG AND PROCESSES FOR FORMING THE TABLETS” (Genentech, Inc., priority 2015, published 2020).

The subject of series [1] is unresectable or metastatic melanoma that is BRAF^v600E mutation-positive. To be noted: cited from earlier work.
For series [2], the system named is BRAF^v600 mutation-positive advance melanoma. The conditions noted are these: cited from earlier work.
Series [3] in a line: 24-hour solubility of active drug in buffers across the physiological pH range. In kind it is physicochemical. The conditions noted are these: 37° C. How it is done:
Cobimetinib is considered to be a high-solubility, moderate-to-high permeability compound with in vivo absorption/pharmacokinetic characteristics consistent with Biopharmaceutics Classification System (BCS) Class 1. […] An active drug is considered highly soluble when the highest dose strength is soluble in <250 mL water over a pH range of 1 to 7.5.

Regarding `CCCS(=O)(=O)Nc1ccc(F)c(C(=O)c2c[nH]c3ncc(-c4ccc(Cl)cc4)cc23)c1F` [vemurafenib, propane-1-sulfonic acid {3-[5-(4-chlorophenyl)-1H-pyrrolo[2,3-b]pyridine-3-carbonyl]-2,4-difluoro-phenyl}-amide], in series [1] (compared with dacarbazine), the “decrease in the risk of disease progression or death” value was 74% and the “reduction in the risk of death” value was 63%. In addition, the response rates entry in series [1] (human, in vivo) is “greater than 50%”. Also, the median progression-free survival in series [2] is 6.2 months.

What is called Solubility is the dissolved amount per volume that the medium holds. Read a low Solubility as little dissolved substance. For the compound “(S)-[3,4-Difluoro-2-(2-fluoro-4-iodoanilino)phenyl]{3-hydroxy-3-[(2S)-piperidin-2-yl]azetidin-1-yl} methanone [cobimetinib hemifumarate]”, the Solubility in series [3] (50 mM Acetate pH 4.5 (pH measured 4.5)) came to 1080 µg/mL; in series [3] (50 mM Phosphate pH 6.8 (pH measured 6.8)), 780 µg/mL; in series [3] (50 mM Phosphate pH 7.5 (pH measured 7.5)), 730 µg/mL; in series [3] (0.1M HCl pH 1.1 (pH measured 1.9)), 48210 µg/mL; in series [3] (FaSSIF pH 6.5 (pH measured 6.4)) it was 480 µg/mL; in series [3] (FeSSIF pH 5.0 (pH measured 5.0)), 4130 µg/mL. The compound further showed a Solubility in series [3] (Water, pH Neutral (pH measured 7.5)) of 720 µg/mL.
